Reference: patent US12102648B2, “Orally-bioavailable nucleoside analogs” (priority 2021, dated 2024)
Read-outs that look alike come from different tables or passages of the source.

Assay: in vitro
Assay type: in vitro ADME
Settings: human
Experimental: The bidirectional permeability of compounds across the Caco-2 cell monolayer was assessed. The Caco-2 model is a widely used in vitro model for small intestinal absorption and potential for efflux.
Cell culture. Caco-2 cells were grown in DMEM supplemented with 10% fetal bovine serum (FBS), 1% Penicillin-Streptomycin and 1% MEM NEAA. The cells were incubated at 37° C., 5% CO2/95% air and saturated humidity. After reaching 80-90% confluency, the cells were gently detached with trypsin. Cells at passage 39 were seeded on the 24-well BD insert system at the density of 8×10^4 cells/cm^2 and cultured for 19 days with medium changed every 2-3 days. Measure the transepithelial electrical resistance (TEER) value of each well. The wells can be used only when their TEER values are greater than 600 Ohms/cm^2.
Transport assay. After removing the cell culture medium from the 24-well insert plate, the cells were rinsed with warm transport buffer. Appropriate dosing and receiving solutions were applied to the donor and receiver chambers to initiate the transport assay in apical to basolateral (A to B) or basolateral to apical (B to A) directions ([…] for apical and basolateral wells, respectively). Duplicate wells in each direction were used for the test compound and control compound. The plate was incubated in CO2 incubator at 37° C., with 5% CO2/95% air and saturated humidity without shaking. The sample after 10-minute incubation was used as the T0 sample, and the sample after 90-minute incubation was used as the T90 sample. To and T90 samples were collected from the donor and receiver side of each well at the designed timepoint, mixed with the transport buffer and acetonitrile/MeOH (1:1, v/v) and the internal standard for LC/MS/MS analysis. All samples were vortexed and centrifuged at 4000 rpm at 4° C. for 15 minutes, diluted with pure water and stored at 4° C. before bioanalysis by LC/MS/MS.
Sample analysis. The concentrations of test compounds and control compounds in Caco-2 cells were quantitatively determined by LC/MS/MS method after protein precipitation.
Calculations. The apparent permeability (Papp, cm/s), efflux ratio (ER) and recovery parameters were calculated for Caco-2 drug transport assay using the following equations:
[formula] [formula] where VR is the solution volume in the receiver chamber (0.4 mL on the apical side, 1.2 mL on the basolateral side); Area is the surface area for the insert membrane, i.e., 0.3 cm^2 for the area of the monolayer; Time is incubation time, expressed in seconds, i.e., 5400 s (90 min) for the current experiment; Co is the initial concentration of test compound or peak area ratio of control compounds in the donor chamber (μM); VD is the volume in the donor chambers (0.4 mL on the apical side, 1.2 mL on the basolateral side); CD and CR are the final concentrations of test compounds or peak area ratio of control compounds in donor and receiver chambers, respectively.
Compounds with Papp<1.0 are classified as low permeability, Papp between 1-10 are classified as medium permeability, and Papp≥10 are classified as high permeability. An efflux ratio (ER)>2 indicates the compounds are potential substrates for intestinal cell efflux transporters.

[1] = Caco-2 monolayer, apical to basolateral, 90-minute incubation, read-out: Papp, A-B
[2] = Caco-2 monolayer, basolateral to apical, 90-minute incubation, read-out: Papp, B-A
[3] = Caco-2 monolayer, ER>2 indicates potential efflux transporter substrate, read-out: ER (efflux ratio)

Work on `CC(C)C(=O)OC[C@H]1O[C@@](C#N)(c2ccc3c(N)ncnn23)[C@H](O)[C@@H]1OC(=O)CC1CCCCC1` [Compound 58, ((2R,3S,4R,5R)-5-(4-aminopyrrolo[2,1-f][1,2,4]triazin-7-yl)-5-cyano-3-(2-cyclohexylacetoxy)-4-hydroxytetrahydrofuran-2-yl)methyl isobutyrate] yielded a Papp A→B at 90 min (Caco-2) of 4.1 ×10⁻⁶ cm/s, a Papp B→A at 90 min (Caco-2) of 2.1 ×10⁻⁶ cm/s and an efflux ratio at 90 min (Caco-2) of 0.5.

For `N#C[C@@]1(c2ccc3c(NC(=O)c4ccccc4)ncnn23)O[C@H](CO)[C@@H](OC(=O)Cc2ccccc2)[C@H]1O` [Compound 143, (2R,3S,4R,5R)-5-(4-benzamidopyrrolo[2,1-f][1,2,4]triazin-7-yl)-5-cyano-4-hydroxy-2-(hydroxymethyl)tetrahydrofuran-3-yl 2-phenylacetate], the Papp A→B at 90 min [1] was 0.67 ×10⁻⁶ cm/s, the Papp B→A at 90 min [2] was 0.12 ×10⁻⁶ cm/s and the efflux ratio at 90 min [3] was 0.18.

`CC(C)[C@H](N)C(=O)O[C@H]1[C@@H](O)[C@](C#N)(c2ccc3c(N)ncnn23)O[C@@H]1COC(=O)CC1CCCCC1` [Compound 27, (2R,3S,4R,5R)-5-{4-aminopyrrolo[2,1-f][1,2,4]triazin-7-yl}-5-cyano-2-{[(2-cyclohexylacetyl)oxy]methyl}-4-hydroxyoxolan-3-yl (2S)-2-amino-3-methylbutanoate] gave a Papp A→B at 90 min (Caco-2) of 0.1 ×10⁻⁶ cm/s, a Papp B→A at 90 min (Caco-2) of 9.9 ×10⁻⁶ cm/s and an efflux ratio at 90 min (Caco-2) of 100.

`CC(C)(C)C(=O)OCOC(=O)Nc1ncnn2c([C@]3(C#N)O[C@H](COC(=O)C(C)(C)C4CCCCC4)[C@@H](O)[C@H]3O)ccc12` [Compound 375, ((2R,3S,4R,5R)-5-cyano-3,4-dihydroxy-5-(4-((((pivaloyloxy)methoxy)carbonyl)amino)pyrrolo[2,1-f][1,2,4]triazin-7-yl)tetrahydrofuran-2-yl)methyl 2-cyclohexyl-2-methylpropanoate] gave a Papp A→B at 90 min (Caco-2) of 0.02 ×10⁻⁶ cm/s, a Papp B→A at 90 min (Caco-2) of 0.02 ×10⁻⁶ cm/s and an efflux ratio at 90 min (Caco-2) of 1.1.

For `CS(=O)(=O)N1CCC(CC(=O)OC[C@H]2O[C@@](C#N)(c3ccc4c(N)ncnn34)[C@H](O)[C@@H]2O)CC1` [Compound 268, ((2R,3S,4R,5R)-5-(4-aminopyrrolo[2,1-f][1,2,4]triazin-7-yl)-5-cyano-3,4-dihydroxytetrahydrofuran-2-yl)methyl 2-(1-(methylsulfonyl)piperidin-4-yl)acetate], the Papp A→B at 90 min (Caco-2) was 0.04 ×10⁻⁶ cm/s, the Papp B→A at 90 min (Caco-2) was 1.8 ×10⁻⁶ cm/s and the efflux ratio at 90 min (Caco-2) was 45.

`CC(C)C(=O)O[C@H]1[C@@H](O)[C@](C#N)(c2ccc3c(N)ncnn23)O[C@@H]1COC(=O)CC1CCCCC1` [Compound 30, (2R,3S,4R,5R)-5-(4-aminopyrrolo[2,1-f][1,2,4]triazin-7-yl)-5-cyano-2-((2-cyclohexylacetoxy)methyl)-4-hydroxytetrahydrofuran-3-yl isobutyrate] gave a Papp A→B at 90 min (Caco-2) of 7.3 ×10⁻⁶ cm/s, a Papp B→A at 90 min (Caco-2) of 7.1 ×10⁻⁶ cm/s and an efflux ratio at 90 min (Caco-2) of 1.

For `CCCCC(=O)Nc1ncnn2c([C@]3(C#N)O[C@H](COC(=O)C(C)C)[C@@H](O)[C@H]3O)ccc12` [Compound 276, ((2R,3S,4R,5R)-5-cyano-3,4-dihydroxy-5-(4-pentanamidopyrrolo[2,1-f][1,2,4]triazin-7-yl)tetrahydrofuran-2-yl)methyl isobutyrate], the Papp A→B at 90 min (Caco-2) was 0.36 ×10⁻⁶ cm/s, the Papp B→A at 90 min (Caco-2) was 2.9 ×10⁻⁶ cm/s and the efflux ratio at 90 min (Caco-2) was 8.

`N#C[C@@]1(c2ccc3c(N)ncnn23)O[C@H](COC(=O)[C@@H](N)Cc2ccccc2)[C@@H](OC(=O)CC2CCCCC2)[C@H]1O` [Compound 372, ((2R,3S,4R,5R)-5-(4-aminopyrrolo[2,1-f][1,2,4]triazin-7-yl)-5-cyano-3-(2-cyclohexylacetoxy)-4-hydroxytetrahydrofuran-2-yl)methyl L-phenylalaninate] gave a Papp A→B at 90 min (Caco-2) of 0.73 ×10⁻⁶ cm/s, a Papp B→A at 90 min (Caco-2) of 0.83 ×10⁻⁶ cm/s and an efflux ratio at 90 min (Caco-2) of 1.1.

For `CCCCC(=O)Nc1ncnn2c([C@]3(C#N)O[C@H](CO)[C@@H](OC(=O)Cc4ccccc4)[C@H]3O)ccc12` [Compound 340, (2R,3S,4R,5R)-5-cyano-4-hydroxy-2-(hydroxymethyl)-5-(4-pentanamidopyrrolo[2,1-f][1,2,4]triazin-7-yl)tetrahydrofuran-3-yl 2-phenylacetate], the Papp A→B at 90 min [1] was 0.64 ×10⁻⁶ cm/s, the Papp B→A at 90 min [2] was 0.23 ×10⁻⁶ cm/s and the efflux ratio at 90 min [3] was 0.35.

For `CC(C)C(=O)O[C@H]1[C@@H](O)[C@](C#N)(c2ccc3c(N)ncnn23)O[C@@H]1COC(=O)Cc1ccccc1` [Compound 46, (2R,3S,4R,5R)-5-(4-aminopyrrolo[2,1-f][1,2,4]triazin-7-yl)-5-cyano-4-hydroxy-2-((2-phenylacetoxy)methyl)tetrahydrofuran-3-yl isobutyrate], the Papp A→B at 90 min [1] was 2.7 ×10⁻⁶ cm/s, the Papp B→A at 90 min [2] was 4.8 ×10⁻⁶ cm/s and the efflux ratio at 90 min [3] was 1.8.

For `CC(=O)O[C@H]1[C@@H](O)[C@](C#N)(c2ccc3c(N)ncnn23)O[C@@H]1COC(=O)Cc1ccccc1` [Compound 45, ((2R,3S,4R,5R)-3-acetoxy-5-(4-aminopyrrolo[2,1-f][1,2,4]triazin-7-yl)-5-cyano-4-hydroxytetrahydrofuran-2-yl)methyl 2-phenylacetate], the Papp A→B at 90 min [1] was 0.8 ×10⁻⁶ cm/s, the Papp B→A at 90 min [2] was 3.4 ×10⁻⁶ cm/s and the efflux ratio at 90 min [3] was 4.3.

With `N#C[C@@]1(c2ccc3c(N)ncnn23)O[C@H](COC(=O)CC2(N)CCCCC2)[C@@H](O)[C@H]1O` [Compound 286, ((2R,3S,4R,5R)-5-(4-aminopyrrolo[2,1-f][1,2,4]triazin-7-yl)-5-cyano-3,4-dihydroxytetrahydrofuran-2-yl)methyl 2-(1-aminocyclohexyl)acetate] the Papp A→B at 90 min (Caco-2) was 0.01 ×10⁻⁶ cm/s, the Papp B→A at 90 min (Caco-2) was 0.4 ×10⁻⁶ cm/s and the efflux ratio at 90 min (Caco-2) was 67.

`CC(C)(C)C(=O)OCOC(=O)Nc1ncnn2c([C@]3(C#N)O[C@H](COC(=O)[C@@H](N)C(C)(C)C)[C@@H](O)[C@H]3O)ccc12` [Compound 395, ((2R,3S,4R,5R)-5-cyano-3,4-dihydroxy-5-(4-((((pivaloyloxy)methoxy)carbonyl)amino)pyrrolo[2,1-f][1,2,4]triazin-7-yl)tetrahydrofuran-2-yl)methyl (S)-2-amino-3,3-dimethylbutanoate] showed a Papp A→B at 90 min (Caco-2) of 0.01 ×10⁻⁶ cm/s, a Papp B→A at 90 min (Caco-2) of 0.24 ×10⁻⁶ cm/s and an efflux ratio at 90 min (Caco-2) of 19.2.

For `CCC(=O)O[C@H]1[C@@H](O)[C@](C#N)(c2ccc3c(NC(=O)OCOC(=O)C(C)(C)C)ncnn23)O[C@@H]1COC(=O)[C@@H](N)C(C)C` [Compound 365, ((2R,3S,4R,5R)-5-cyano-4-hydroxy-5-(4-((((pivaloyloxy)methoxy)carbonyl)amino)pyrrolo[2,1-f][1,2,4]triazin-7-yl)-3-(propionyloxy)tetrahydrofuran-2-yl)methyl L-valinate], the Papp A→B at 90 min (Caco-2) was 1.5 ×10⁻⁶ cm/s, the Papp B→A at 90 min (Caco-2) was 4.1 ×10⁻⁶ cm/s and the efflux ratio at 90 min (Caco-2) was 2.8.

For `CCCC(=O)Nc1ncnn2c([C@]3(C#N)O[C@H](COC(=O)CC4(N)CCCCC4)[C@@H](O)[C@H]3O)ccc12` [Compound 354, ((2R,3S,4R,5R)-5-(4-butyramidopyrrolo[2,1-f][1,2,4]triazin-7-yl)-5-cyano-3,4-dihydroxytetrahydrofuran-2-yl)methyl 2-(1-aminocyclohexyl)acetate], the Papp A→B at 90 min (Caco-2) was 10 ×10⁻⁶ cm/s, the Papp B→A at 90 min (Caco-2) was 3 ×10⁻⁶ cm/s and the efflux ratio at 90 min (Caco-2) was 0.29.

`CCC(=O)O[C@H]1[C@@H](O)[C@](C#N)(c2ccc3c(N)ncnn23)O[C@@H]1COC(=O)[C@@H](N)C(C)C` [Compound 39, ((2R,3S,4R,5R)-5-(4-aminopyrrolo[2,1-f][1,2,4]triazin-7-yl)-5-cyano-4-hydroxy-3-(propionyloxy)tetrahydrofuran-2-yl)methyl L-valinate] showed a Papp A→B at 90 min [1] of 0.23 ×10⁻⁶ cm/s, a Papp B→A at 90 min [2] of 2.3 ×10⁻⁶ cm/s and an efflux ratio at 90 min [3] of 10.

Molecule `CCCCCCCCCCCCCCCCCCOCCOP(=O)(O)OC[C@H]1O[C@@H](n2cnc3c(NC)nc(N)nc32)[C@](C)(F)[C@@H]1O` [Compound 254, ((2R,3R,4R,5R)-5-(2-amino-6-(methylamino)-9H-purin-9-yl)-4-fluoro-3-hydroxy-4-methyltetrahydrofuran-2-yl)methyl (2-(octadecyloxy)ethyl) hydrogen phosphate] has a Papp A→B at 90 min (Caco-2) of 2.2 ×10⁻⁶ cm/s, a Papp B→A at 90 min (Caco-2) of 1.7 ×10⁻⁶ cm/s and an efflux ratio at 90 min (Caco-2) of 0.8.
